Test results from patent US8968780B2, “Stabilized pharmaceutical composition” (Egis Gyogyszergyar Nyilvanosan Muekoedoe Reszvenytarsasag, priority 2010, dated 2015).
Like-named read-outs stand apart in the source and are kept apart here.

Tests used:
[1] = Preformulation stability of pregabalin with physically admixed non-reducing saccharides (appearance, scent); type: physicochemical

For CC(C)CC(CN)CC(=O)O (stereo not drawn) [Pregabalin, 5-methyl-3-aminomethyl-hexanoic acid], the “% Known Impurities Lactum RRT = 3.91” value (40° C./75% RH/4 Weeks/open) was 0.004%, the “% Known Impurities Lactum RRT = 3.91” value (60° C./2 Weeks/closed) was 0.006% and the “% Known Impurities Lactum RRT = 3.91” value (Initial) was less than 0.0003%. For the same molecule, the Scent ([1]; 40° C./75% RH/4 Weeks/open) was “Odourless”, the Scent ([1]; 50° C./4 Weeks/closed) was “Odourless” and the Scent ([1]; Initial) was “Odourless”.
